Laboratory results as given in ChEMBL document CHEMBL1671859, “bla(IMP-4) in different genetic contexts in Enterobacteriaceae isolates from Australia” (2008).
≈ marks a conversion by molar mass, not a printed value.

Experiments:
Assay type in all cases: functional
[1] = test system: Klebsiella pneumoniae; assay: Antibacterial activity against Klebsiella pneumoniae isolate Kp1239 harboring IncL/M plasmid and blaIMP-4-qacG2-aacA4-catB3 array by Etest method
[2] = test system: Serratia marcescens; assay: Antibacterial activity against Serratia marcescens isolate Sm211 harboring IncA/C plasmid and blaIMP-4-qacG2-aacA4-catB3 array by Etest method
[3] = test system: Klebsiella pneumoniae; assay: Antibacterial activity against Klebsiella pneumoniae isolate Kp204 harboring IncA/C plasmid and blaIMP-4-qacG2-aacA4-catB3 array by Etest method
[4] = test system: Klebsiella pneumoniae; assay: Antibacterial activity against Klebsiella pneumoniae isolate Kp1945 harboring IncL/M plasmid and blaIMP-4-qacG2-aacA4-catB3 and dfrA12-orfF-aadA2 arrays by Etest method
[5] = test system: Klebsiella oxytoca; assay: Antibacterial activity against Klebsiella oxytoca isolate Ko1156 harboring IncL/M plasmid and blaIMP-4-qacG2-aacA4-catB3 array by Etest method
[6] = test system: Serratia marcescens; assay: Antibacterial activity against Serratia marcescens isolate Sm203 harboring IncA/C plasmid and blaIMP-4-qacG2-aacA4-catB3 array by Etest method
[7] = test system: Citrobacter youngae; assay: Antibacterial activity against Citrobacter youngae isolate CyB38 harboring blaIMP-4-qacG2-aacA4-catB3 array by Etest method
[8] = test system: Klebsiella pneumoniae; assay: Antibacterial activity against Klebsiella pneumoniae isolate Kp211 harboring IncA/C plasmid and blaIMP-4-qacG2-aacA4-catB3 array by Etest method
[9] = test system: Acinetobacter baumannii; assay: Antibacterial activity against Acinetobacter baumannii isolate AbN450 harboring […]-qacG2-aacA4-catB3 array by Etest method
[10] = test system: Citrobacter amalonaticus; assay: Antibacterial activity against Citrobacter amalonaticus isolate Ca1614 harboring IncL/M plasmid and blaIMP-4-qacG2-aacA4-catB3 array by Etest method
[11] = test system: Citrobacter amalonaticus; assay: Antibacterial activity against Citrobacter amalonaticus isolate Ca3927 harboring IncL/M plasmid and blaIMP-4-qacG2-aacA4-catB3 array by Etest method
[12] = test system: Serratia marcescens; assay: Antibacterial activity against Serratia marcescens isolate Sm2723 harboring IncL/M plasmid and blaIMP-4-qacG2-aacA4-catB3 array by Etest method
[13] = test system: Klebsiella pneumoniae; assay: Antibacterial activity against Klebsiella pneumoniae isolate Kp149 harboring IncA/C plasmid and blaIMP-4-qacG2-aacA4-catB3 array by Etest method
[14] = test system: Klebsiella pneumoniae; assay: Antibacterial activity against Klebsiella pneumoniae isolate Kp3799 harboring IncL/M plasmid and blaIMP-4-qacG2-aacA4-catB3 array by Etest method
[15] = test system: Acinetobacter; assay: Antibacterial activity against Acinetobacter isolate A74510 harboring blaIMP-4-qacG2-aacA4-catB3 array by Etest method
[16] = test system: Klebsiella pneumoniae; assay: Antibacterial activity against Klebsiella pneumoniae isolate Kp2730 harboring IncL/M plasmid and blaIMP-4-qacG2-aacA4-catB3 and dfrA12-orfF-aadA2 arrays by Etest method
[17] = test system: Klebsiella pneumoniae; assay: Antibacterial activity against Klebsiella pneumoniae isolate Kp7564 harboring IncL/M plasmid and blaIMP-4-qacG2-aacA4-catB3 array by Etest method
[18] = test system: Morganella morganii; assay: Antibacterial activity against Morganella morganii isolate Mm1614 harboring IncL/M plasmid and blaIMP-4-qacG2-aacA4-catB3 array by Etest method
[19] = test system: Klebsiella pneumoniae; assay: Antibacterial activity against Klebsiella pneumoniae isolate Kp266 harboring IncA/C plasmid and blaIMP-4-qacG2-aacA4-catB3 array by Etest method
[20] = test system: Escherichia coli; assay: Antibacterial activity against Escherichia coli isolate Ec158 harboring IncA/C plasmid and blaIMP-4-qacG2-aacA4-catB3 array by Etest method
[21] = test system: Klebsiella oxytoca; assay: Antibacterial activity against Klebsiella oxytoca isolate Ko238 harboring IncA/C plasmid and blaIMP-4-qacG2-aacA4-catB3 array by Etest method
[22] = test system: Morganella morganii; assay: Antibacterial activity against Morganella morganii isolate Mm1229 harboring IncL/M plasmid and blaIMP-4-qacG2-aacA4-catB3 array by Etest method
[23] = test system: Escherichia coli; assay: Antibacterial activity against Escherichia coli isolate Ec9381 harboring IncL/M plasmid and blaIMP-4-qacG2-aacA4-catB3 array by Etest method
[24] = test system: Citrobacter koseri; assay: Antibacterial activity against Citrobacter koseri isolate Ck211 harboring IncA/C plasmid and blaIMP-4-qacG2-aacA4-catB3 array by Etest method
[25] = test system: Serratia marcescens; assay: Antibacterial activity against Serratia marcescens isolate Sm265 harboring IncA/C plasmid and blaIMP-4-qacG2-aacA4-catB3 array by Etest method
[26] = test system: Escherichia coli; assay: Antibacterial activity against Escherichia coli isolate Ec211 harboring IncA/C plasmid and blaIMP-4-qacG2-aacA4-catB3 array by Etest method
[27] = test system: Klebsiella pneumoniae; assay: Antibacterial activity against Klebsiella pneumoniae isolate Kp4614
[28] = test system: Klebsiella pneumoniae; assay: Antibacterial activity against Klebsiella pneumoniae isolate Kp38009 harboring IncL/M plasmid and blaIMP-4-qacG2-aacA4-catB3 array by Etest method
[29] = test system: Citrobacter amalonaticus; assay: Antibacterial activity against Citrobacter amalonaticus isolate Ca38009 harboring IncL/M plasmid and blaIMP-4-qacG2-aacA4-catB3 array by Etest method
[30] = test system: Serratia marcescens; assay: Antibacterial activity against Serratia marcescens isolate Sm220 harboring IncA/C plasmid and blaIMP-4-qacG2-aacA4-catB3 array by Etest method
[31] = test system: Klebsiella oxytoca; assay: Antibacterial activity against Klebsiella oxytoca isolate Ko0426 harboring IncL/M plasmid and blaIMP-4-qacG2-aacA4-catB3 array by Etest method
[32] = test system: Morganella morganii; assay: Antibacterial activity against Morganella morganii isolate Mm38009 harboring IncL/M plasmid and blaIMP-4-qacG2-aacA4-catB3 array by Etest method
[33] = test system: Citrobacter freundii; assay: Antibacterial activity against Citrobacter freundii isolate Cf1614 harboring IncL/M plasmid and blaIMP-4-qacG2-aacA4-catB3 array by Etest method
[34] = test system: Serratia marcescens; assay: Antibacterial activity against Serratia marcescens isolate Sm201 harboring IncA/C plasmid and blaIMP-4-qacG2-aacA4-catB3 array by Etest method
[35] = test system: Escherichia coli; assay: Antibacterial activity against Escherichia coli isolate Ec221 harboring IncA/C plasmid and blaIMP-4-qacG2-aacA4-catB3 array by Etest method
[36] = test system: Klebsiella pneumoniae; assay: Antibacterial activity against Klebsiella pneumoniae isolate Kp38045 harboring IncL/M plasmid and blaIMP-4-qacG2-aacA4-catB3 array by Etest method

Row | SMILES | MIC [2] [µg/mL] | MIC [5] [µg/mL] | MIC [6] [µg/mL] | MIC [7] [µg/mL] | MIC [9] [µg/mL] | MIC [10] [µg/mL] | MIC [11] [µg/mL] | MIC [12] [µg/mL] | MIC [15] [µg/mL] | MIC [18] [µg/mL] | MIC [20] [µg/mL] | MIC [21] [µg/mL] | MIC [22] [µg/mL] | MIC [23] [µg/mL] | MIC [24] [µg/mL] | MIC [25] [µg/mL] | MIC [26] [µg/mL] | MIC [29] [µg/mL] | MIC [30] [µg/mL] | MIC [31] [µg/mL] | also measured
1 | C[C@H]1[C@H](NC(=O)/C(=N\OC(C)(C)C(=O)O)c2csc(N)n2)C(=O)N1S(=O)(=O)O [AZTREONAM] | ≤ 1 | ≤ 1 | ≤ 1 | ≤ 1 | > 16 | > 16 | > 16 | ≤ 1 | > 16 | 4 (≈ 9.19 µM) | ≤ 1 | ≤ 1 | ≤ 1 | ≤ 1 | ≤ 1 | ≤ 1 | ≤ 1 | ≤ 1 | ≤ 1 | ≤ 1 | MIC [1]: ≤ 1 µg/mL; MIC [3]: ≤ 1 µg/mL; MIC [4]: ≤ 1 µg/mL; MIC [8]: ≤ 1 µg/mL; MIC [13]: > 16 µg/mL; MIC [14]: ≤ 1 µg/mL; MIC [16]: ≤ 1 µg/mL; MIC [17]: ≤ 1 µg/mL; MIC [19]: ≤ 1 µg/mL; MIC [27]: ≤ 1 µg/mL; MIC [28]: ≤ 1 µg/mL; MIC [32]: ≤ 1 µg/mL; MIC [33]: > 16 µg/mL; MIC [34]: ≤ 1 µg/mL; MIC [35]: ≤ 1 µg/mL; MIC [36]: ≤ 1 µg/mL
2 | O=C(O)c1cn(C2CC2)c2cc(N3CCNCC3)c(F)cc2c1=O [CIPROFLOXACIN] | 2 (≈ 6.04 µM) | ≤ 0.5 | 2 (≈ 6.04 µM) | > 2 | > 2 | ≤ 0.5 | ≤ 0.5 | > 2 | > 2 | ≤ 0.5 | ≤ 0.5 | ≤ 0.5 | ≤ 0.5 | ≤ 0.5 | ≤ 0.5 | ≤ 0.5 | ≤ 0.5 | ≤ 0.5 | 2 (≈ 6.04 µM) | ≤ 0.5 | MIC [32]: ≤ 0.5 µg/mL; MIC [33]: ≤ 0.5 µg/mL; MIC [34]: > 2 µg/mL; MIC [35]: ≤ 0.5 µg/mL
